In general, melting point refers to the temperature of the solid-liquid transition.

Molecule `O=C(Nc1ccc(OCCN2CCOCC2)c2ccccc12)c1cc(N2CCOCC2)ncn1` showed a melting point of 50 to 51 °C. The figure for `Nc1ncnc2c1c(-c1ccc(Oc3ccccc3)cc1)cn2C1CCNC1` (stereo unspecified) is 182 to 184 °C. The same measure for `O=C1Nc2ccccc2C1CCCCN1CCN(c2ccc(Cl)cc2)CC1` (stereo unspecified): 136 to 137 °C; for `COc1c(C#N)c(C#N)c(OC)c2ccccc12`: 190 °C; for `Clc1ccccc1-c1n[nH]c(-c2ccccc2Cl)n1`: 159 to 160 °C. `COc1ccc(C2=NN(c3ccc(Cl)cc3)C(=O)[C@H]3CC=CC[C@@H]23)cc1OC` (relative stereo) showed a melting point of 140 to 141 °C. The figure for `O=[N+]([O-])c1cc(C(F)(F)F)ccc1SCc1ccccc1` is 132 to 136 °C; for `CCOC(=O)C1=C(C)NC(C)=C(C(=O)OCC)C1c1ccccc1C=CC(=O)O` it is 175 to 178 °C. The figure for `O=C1C(=O)N(C(c2ccccc2)c2ccccc2)c2c(Cl)cccc21` is 172 to 173 °C; for `COc1ncc(NC(=S)NC(=O)c2ccccc2)c(OC)n1` it is 182 °C; for `CC(=O)Nc1ccc(NC(=O)c2ccc(O)cc2)cc1` it is 160 °C.

`Cc1ncc(COP(=O)(O)O)c(CN(CCN(CC(=O)O)Cc2c(COP(=O)(O)O)cnc(C)c2O)CC(=O)O)c1O` yielded a melting point of 174 to 180 °C. With `CC(C)(C)c1cc(C2NNC(=S)N2N)cc(C(C)(C)C)c1O` (stereo unspecified), the melting point fell in the range of 260 to 270 °C. With `Nc1cc(Sc2ccc(Cl)cc2)nc(-c2ccccc2)n1`, the melting point was in the range of 118 to 121 °C. In turn, `COC(=O)CN(CCNC(=O)OC(C)(C)C)C(=O)Cc1cc2c(C)ccnc2[nH]c1=O` returned a melting point of 175 to 177 °C. The same measure for `Cc1cc(C)cc(COC(=O)C(Cc2c[nH]c3ccccc23)NC(=O)c2ccccc2)c1` (stereo unspecified): 133 to 134 °C; for `CC(=O)c1ccc(OCCCBr)c(C)c1`: 59 to 61 °C; for `COCCOc1ccc(/C=C/C(=O)NS(=O)(=O)c2cccc(Cl)c2)c(Oc2ncc(C(F)(F)F)cc2Cl)c1`: 157 to 158 °C. `Cc1ccccc1OCC(=O)Nc1ccc(C(=O)N2CCCCc3ccccc32)cc1`: the melting point was in the range of 172 to 175 °C.

In turn, `O=C(O)Cc1cccc2c(=O)cc(-c3c(F)cccc3F)oc12` returned a melting point of 178 to 180 °C.

As for `Clc1cc2c(cc1Cl)CC=C2`, the melting point was determined as 76 °C. The figure for `CCOC(=O)c1cn(-c2ccc(F)cc2F)c2nc(N3CCNCC3)c(F)cc2c1=O` is 208 to 211 °C; for `CN(C)c1nc(-c2ccccc2O)cs1` it is 201 to 204 °C; for `CCCCCCCCCCCCCCCCOc1coc(CO)cc1=O` it is 68 to 69.5 °C. With `COC(=O)CC(c1ccc(OC)c(OC)c1)N1C(=O)C2CCCCC2C1=O` (stereo unspecified), the melting point fell in the range of 92.5 to 95 °C. As for `Nc1cc(Cl)nc(S(=O)(=O)Cc2cccc(Br)c2)n1`, the melting point was in the range of 191 to 192 °C.

`COc1ccc(CNn2c(=O)ccc3cnc(S(C)(=O)=O)nc32)cc1Cl` registered a melting point of 212 to 214 °C.

In turn, `COc1ccc(NC(=O)c2cccc(OC)c2N)cc1` had a melting point of 168 to 169 °C. The same measure for `COc1ccc(OCC2(CO)CC2)cc1`: 80 to 81 °C; for `CCOC(=O)c1cnn(C)c1S(N)(=O)=O`: 102 to 104 °C. The figure for `CC(=O)Nc1nc(CCc2ccc(CCCN)s2)cs1` is 106 to 108 °C; for `CC(=O)NS(=O)(=O)c1cc(C(=O)O)cc(N)c1Oc1ccccc1` it is 290 to 293 °C. The figure for `Cc1c(C)c2c(c(C)c1O)C(CO)C(C)(C)O2` (stereo unspecified) is 89 to 90 °C; for `COc1ccnc(CCc2nc3cc(-c4cccs4)cnc3[nH]2)c1` it is 132 to 133 °C. `CCOC(=O)c1oc(-c2ccc(Cl)cc2)cc(=O)c1Br` returned a melting point of 146 to 149 °C. The figure for `O=Cc1c(OCc2ccccc2)ccc2ccccc12` is 120 to 121 °C.

The values are drawn from a melting point compilation (Tetko et al.; mined from patent text by program, amines drawn as free bases though some values may be those of a salt).
